Laboratory results from patent US20240366543A1, “METHODS OF TREATING METHYLMALONIC ACIDEMIA AND PROPIONIC ACIDEMIA” (HemoShear Therapeutics, Inc., priority 2021, published 2024).
“And” between values parts separate entries of the source, which are not always exact repeats. Equal values may be shown once. Read-outs that look alike come from different tables or passages of the source.

Legend:
[1] = system: Hepatocytes from propionic academia patients; assay: Ureagenesis (15N-urea) in HemoShear REVEAL-Tx technology (Example 3); format: cell-based, human; settings: PA primary hepatocytes, treated day 5 to day 7, 15N-NH4Cl 4 hrs
Description: For this experiment, we deployed the HemoShear REVEAL-Tx™ technology, which is based on the cone-and-plate configuration or viscometer combined with a porous polycarbonate membrane that mimics a filtering layer of sinusoidal endothelial cells (see: Dash A, Deering TG, Marukian S, et al. Physiological Hemodynamics and Transport Restore Insulin and Glucagon Responses in a Normal Glucose Milieu in Hepatocytes In Vitro. 73rd Scientific Sessions of the American Diabetes Association, 2013 (Chicago), and U.S. Pat. Nos. 7,811,782 and 9,500,642, and 9,617,521, each of which is incorporated by reference herein in its entirety).
Hepatocytes from propionic academia patients are plated in a collagen gel sandwich on one side of the membrane replicating the polarized orientation found in vivo within the hepatic sinusoids. On the other side, medium is continuously perfused and surface shear rates are applied across a range of physiological values derived from sinusoidal flow rates in vivo while also controlling transport in the system with in- and out-flow tubing to each compartment. […]
Hepatocytes are treated with increasing doses of Compound 5 (0, 0.1, 0.3, 1, 3, 10, 30, 100 μM) in the HemoShear REVEAL-Tx™ technology from day 5 to day 7. […] After 4 hrs, cells are washed 2× in saline solution and lysed, scraped and harvested using 80% methanol. ^15N-urea is measured by GCMSMS.

[2] = Phase 2 study preliminary plasma pharmacokinetics in PA/MMA subjects; format: in vivo, human; settings: for C24 / concentration at 24 h: 24 hours post-dose; for C24: C24projected: ratio observed to projected; for AUC(0-t): read-out: AUC0-24 h; for concentration at 24 h: read-out: C24
Protocol: Part A is the dose escalation phase to assess the initial safety and to confirm the pharmacologic activity of Compound 5 in subjects with PA and MMA. Screening for eligibility took place within 28 days of enrollment. All subjects were initially evaluated during a 4-week run-in period followed by within-subject dose escalation of 3 doses (1, 3, and 10 mg/kg QD of sodium 2,2-dimethylbutanoate); dose escalation interval of 4 weeks) to check for improvement in disease-related biomarkers.
Plasma will be analyzed by liquid chromatography with tandem mass spectrometry (LC-MS/MS) with a lower limit of quantitation of 0.100 μg/mL. Samples collected for analyses of Compound 5 (plasma/serum/whole blood)] concentration may also be used to evaluate safety or efficacy aspects related to concerns arising during or after the study.
Preliminary pharmacokinetics (PK) data from the first two subjects of Study described in Examples 7-8 was evaluated at 1 mg/kg, 3 mg/kg and 10 mg/kg of Compound 5 dosed once daily (QD).

[3] = system: primary hepatocytes of propionic acidemia patients; assay: Propionyl-CoA from 13C-labelled sources in PA primary hepatocytes (Example 1); format: cell-based, human; settings: 0-100 μM
Protocol: Primary hepatocytes isolated from livers of propionic acidemia patients are treated with increasing doses of Compound 5 (0, 0.1, 0.3, 1, 3, 10, 30, 100 μM) for 30 minutes. After 30 minutes the cells are challenged with the different sources of P-CoA, which may include 13C-KIVA (1 mM), 13C-isoleucine (3 mM), 13C-threonine (5 mM), 13C-methionine (5 mM), 13C-heptanoate (100 μM), or 13C-propionate (5 mM) for 60 minutes. At the end of the challenge period, media is removed and the cells are lysed with 70% MeCN and 0.1% TFA containing 100 μM of ethymalonyl-CoA as an internal standard and harvested. Cell lysates are processed for HTMS/MS analysis.

[4] = system: primary hepatocytes of methylmalonic acidemia patients; assay: Propionyl-CoA and methylmalonyl-CoA from 13C-labelled sources in MMA primary hepatocytes (Example 2); format: cell-based, human
Protocol: Primary hepatocytes isolated from livers of methylmalonic acidemia patients are treated with increasing doses of Compound 5 (0, 0.1, 0.3, 1, 3, 10, 30, 100 µM) for 30 min. After 30 minutes the cells are challenged with the different sources of P-CoA, which may include 13C-KIVA (1 mM), ^13C-isoleucine (3 mM), ^13C-threonine (5 mM), ^13C-methionine (5 mM), ^13C-heptanoate (100 μM), or ^13C-propionate (5 mM) for 60 minutes. At the end of the challenge period, media is removed and the cells are lysed with 70% MeCN and 0.1% TFA containing 100 μM of ethymalonyl-CoA as an internal standard and harvested. Cell lysates are processed for HTMS/MS analysis.

[5] = system: primary hepatocytes (pHeps) from MMA donors; assay: HemoShear REVEAL-Tx Technology, MMA pHeps; format: cell-based, human
PA pHeps = assay: Static cell culture, PA pHeps, low/high propiogenic media; format: cell-based, human; settings: for % change at 30 μM, 13C-Propionyl-CoA (13C-P-CoA): static cell culture; for Percent change (30 μM), 12C-Acetyl-CoA / Percent change (30 μM), CoASH: static culture 1.5 h
Protocol: Unlike the HemoShear Technology, this assay is carried out without constant perfusion, utilizing cell culture media that was customized to mimic plasma levels of propiogenic sources (amino acids and ketoacids) in PA and MMA patients during periods of relative metabolic stability (low propiogenic media) and acute metabolic crisis (high propiogenic media). PA and MMA pHeps, in static cell culture, were treated with Compound 5 (concentrations ranging from 0.1 μM to 100 μM) for 30 minutes in low propiogenic media, followed by either a continuation of low propiogenic media or a switch to the high propiogenic media for 1 hour. The media used during the 1-hour incubation contained propiogenic SIL amino acids and ketoacids which are metabolized into labeled P-CoA and M-CoA in the cells. The SIL amino acids and ketoacids were a mix of ^13C and MeD8 labelling, but their catabolism produced a SIL P-CoA (denoted as ^13C—P-CoA for simplicity) with the same mass, independent of the type of SIL (also true for ^13C-M-CoA).

[6] = 1 mg/kg QD, single dose, individual subjects 010-1001, 010-1002, preliminary
[7] = 1 mg/kg QD, steady-state, individual subjects
[8] = 3 mg/kg QD, steady-state, individual subjects
[9] = 10 mg/kg QD, steady-state, individual subjects
[10] = human, plasma, oral, 1 mg/kg, 1 mg/kg QD, steady-state, individual subjects
[11] = human, plasma, oral, 10 mg/kg, 10 mg/kg QD, steady-state, individual subjects

Compound: CCC(C)(C)C(=O)O [Compound 5, 2,2-dimethylbutyric acid]
- 15N-urea (ureagenesis) [1]: dose-dependent increase
- AUC0-24 h [2, 6]: 22800 ng·h/mL
- Cmax [2, 6]: 1740 ng/mL
- C24 [2, 7]: 0.765 µg/mL
- AUC0-24 h [2, 7]: 36500 ng·h/mL
- Cmax ([2]; 1 mg/kg QD, steady-state, individual subjects 010-1001, 010-1002): 2930 ng/mL
- C24: C24projected [2, 7]: 1.27 and 0.829
- C24 [2, 8]: 3.34 µg/mL and 1.01 µg/mL
- AUC0-24 h [2, 8]: 115000 ng·h/mL
- Cmax ([2]; 3 mg/kg QD, steady-state, individual subjects 010-1001, 010-1002): 11400 ng/mL
- C24: C24projected [2, 8]: 1.21 and 0.365
- C24 [2, 9]: 13.1 µg/mL
- AUC0-24 h [2, 9]: 678000 ng·h/mL
- Cmax ([2]; 10 mg/kg QD, steady-state, individual subjects 010-1001, 010-1002): 50600 ng/mL
- C24: C24projected [2, 9]: 0.985 and 1.42
- AUC(0-t) ([2]; human, plasma, oral, 1 mg/kg, 1 mg/kg QD, single dose, individual subjects 010-1001, 010-1002, preliminary): 30800 ng·h/mL
- Cmax ([2]; human, plasma, oral, 1 mg/kg, 1 mg/kg QD, single dose, individual subjects 010-1001, 010-1002, preliminary, read-out: Cmax): 2620 ng/mL
- concentration at 24 h [2, 10]: 1170 ng/mL
- Cmax ([2]; human, plasma, oral, 1 mg/kg, 1 mg/kg QD, steady-state, individual subjects 010-1001, 010-1002, read-out: Cmax): 4410 ng/mL
- AUC(0-t) [2, 10]: 56500 ng·h/mL
- Cmax ([2]; human, plasma, oral, 3 mg/kg, 3 mg/kg QD, steady-state, individual subjects 010-1001, 010-1002, read-out: Cmax): 15900 ng/mL
- AUC(0-t) ([2]; human, plasma, oral, 3 mg/kg, 3 mg/kg QD, steady-state, individual subjects): 189000 ng·h/mL
- concentration at 24 h [2, 11]: 9090 ng/mL
- Cmax ([2]; human, plasma, oral, 10 mg/kg, 10 mg/kg QD, steady-state, individual subjects 010-1001, 010-1002, read-out: Cmax): 50700 ng/mL
- AUC(0-t) [2, 11]: 557000 ng·h/mL
- intracellular propionyl-CoA from all sources investigated [3]: dose-dependent reduction
- intracellular propionyl-CoA and methylmalonyl-CoA from all sources investigated [4]: dose-dependent reduction
- average reduction in the C3/C2 ratio (log 2 fold change) ([5]; 30 μM): −2.2±0.2 log 2 fold change
- % change at 30 μM, 2-Methylcitric acid (2MC) ([5]; average ± SD): −66.7±14.9%
- % change at 30 μM, 12C-Acetyl-Carnitine (C2) ([5]; average ± SD): 44.6 ± 26.8%
- % change at 30 μM, 12C-Methylmalonyl-CoA (M-CoA) ([5]; average ± SD): −55±6.6%
- % change at 30 μM, 12C-Propionyl-Carnitine (C3) ([5]; average ± SD): −65.9±10.7%
- % change at 30 μM, 12C-Propionyl-CoA (P-CoA) ([5]; average ± SD): −74.2±11.6%
- Percent change at 30 μM, 12C-Acetyl-CoA ([5]; exposed 6 days): 13.5 ± 24.9%
- Percent change at 30 μM, CoASH ([5]; exposed 6 days): −22.3 ± 22.3%
- % change at 30 μM, 13C-Propionyl-CoA (13C-P-CoA) (PA pHeps; high propiogenic media): −85.3±9.1%
- % change at 30 μM, 13C-Propionyl-CoA (13C-P-CoA) (PA pHeps; low propiogenic media): −76.4±12.6%
- Percent change (30 μM), 12C-Acetyl-CoA (PA pHeps; high propiogenic media): −27 ± 3.4%
- Percent change (30 μM), CoASH (PA pHeps; high propiogenic media): −48 ± 14.3%
- Percent change (30 μM), 12C-Acetyl-CoA (PA pHeps; low propiogenic media): −36.6 ± 13.5%
- Percent change (30 μM), CoASH (PA pHeps; low propiogenic media): −55.2 ± 7.1%
